Measurements: patent US20170131285A1, “METHODS AND COMPOSITIONS FOR DIAGNOSING, MONITORING AND TREATING CANCER” (INSERM (Institut National de la Sante et de la Recherche …, priority 2014, published 2017)

Experiments:
HCT116 cells = experiment: HSP70-exosomes release from HCT116 cells treated with chemotherapy drugs (BLI, flow cytometry); format: cell-based, human; details: for amount of HSP70-exosomes released, dose-response / number of exosomes at higher doses: HCT116, 48 h; for amount of HSP70-exosomes released, dose-response: concentrations inducing a relatively low amount of cell death, flow cytometry; for number of exosomes at higher doses: doses inducing more than 40% cell death; for amount of HSP70-exosomes released, extent of increase: HCT116, toxic equivalent concentrations: oxaliplatin 5 μM, 5FU 3 μM, paclitaxel 50 nM, gemcitabin 10 μM, doxorubicin 2.5 μM, BLI
Procedure: FIG. 7: Effect of chemotherapy drugs on HSP70-exosomes release. A) Association curves of HSP70-exosomes isolated from the supernatant of HCT116 cells treated or not with oxaliplatin (5 μM), 5FU (3 μM), paclitaxel (50 nM), gemcitabin (10 μM) and doxorubicin ([…]). For the BLI, biotinylated A8 was immobilized on streptavidin sensor tips, n=3. B-C) HCT116 cells were treated with 5FU (3, 12, 24 and 36 μM) or oxaliplatin (5, 20, 40 and 60 μM) or doxorubicin (2.5, 10, and 20 μM) during 48 h. B) concentration of HSP70-exosomes released was measured by flow cytometry. C) measured apoptosis of HCT116 (7AAD and FITC-Annexin V).
Cells were cultured in medium depleted from serum-derived exosomes. Supernatants were collected from cell lines and sequentially centrifuged at 300 g for 10 minutes (4° C.) and at 2,000 g for 10 minutes. Then, exosomes were ultracentrifugated at 100,000 g for 70 minutes and washed in PBS. The same protocol was used for urines and blood samples. To evaluate exosome concentrations, we used a Nano Sight LM10 instrument (NanoSight, Amesbury, UK).
Protein-protein interaction experiments were conducted with an Octet Red instrument (ForteBio, USA). The ligand (A8 or TLR2) was biotinylated using EZ-Link NHS-PEG4-biotin (2 nM, 30 min, RT, Thermo Fisher Scientific, Germany) and immobilized on streptavidin sensors (96-well plate black, ForteBio, USA). Functionalized sensors were incubated in PBS (10 min) then incubated with exosomes (10^6, from cancer cells lines or normal cells or mice blood or human urine, for 120 or 600 seconds) or HSP70 (concentration range from 2.5 μM to 0.52 nM) or cmHSP70 (1/1,000). All sensorgrams were corrected for baseline drift by subtracting a control sensor exposed to running buffer only. Each KD was determined with a 1:1 stoichiometry model using a global fit with Rmax unlinked by sensor (ForteBio, Data analysis software version 7.1.0.89).
Exosomes from cancer cells lines or normal cells were bound to surfactant-free white aldehyde-sulfate latex beads ([…], Invitrogen) and concentrated at 1·10^4 beads/μL. Exosomes (30 μg) were incubated with the beads suspension for 15 min and then for 1 h at room temperature (RT) in final volume of 1 mL PBS. Beads were saturated with glycine (100 mM) for 30 minutes at RT and washed twice with PBS supplemented by 3% of FBS. Expression of membranar HSP70 on cells (normal and cancerous) was determined by flow cytometry using cmHSP70 antibody. MSC2 and HCT116 cell death was measured by PS exposure, cells stained with 7AAD and FITC-Annexin V conjugate. All analyses were performed on a LSRII flow cytometer (BD Bioscience).

[1] = tested on: B16F10 tumor-bearing mice; experiment: HSP70-exosomes in blood of tumor-bearing mice, A8-BLI protocol; format: in vivo, mouse; details: cisplatin 5 mg/kg, BLI with A8 ligand
B16F10 cells = experiment: HSP70-exosomes released by cultured B16F10 cells, flow cytometry; format: cell-based, mouse; details: cisplatin 25 μM, FACS
Procedure: FIG. 5: A8 anti-tumor effect in mice is associated to MDSC and an immune anti-tumor response. (A) Mice were sc injected with B16F10 cells (5×10^4). On day 4, when tumor size was about 0.9 mm^3, animals were treated every two days until the end of the experiment with A0 or A8 (3 mg/kg dissolved in PBS, i.p injection). On day 5, half the animals were treated with cisplatin as a single dose (CDDP, i.p injection, 5 mg/kg). At day 18, the percentage of Gr1^+ CD11b^+ cells in the spleen collected from the different groups of mice was analyzed by flow cytometry (6 animals per group). As a MDCS negative control (Ctl) we used animals with no tumor cells injected. Right panels, a representative immunoblot of pSTAT3 in the MDSC (Gr1^+ CD11b^+ cells) isolated from the spleen of control animals (A0/PBS) or A8 and CDDP-treated animals (A8/CDDP). 14-3-3 is used as a loading control. (B) Analysis of tumor growth in the animals described above. Tumor size was measured every two days (6 animals per group). […] (C) HSP70-exosomes isolated from B16F10 cells treated or not with cisplatin (CDDP, 25 μM) were determined by flow cytometry. […]
B16F10, CT26, HCT116 and SW480 cells were cultured for 48 h or 24 h with cisplatin (CDDP) treatment in medium depleted from serum-derived exosomes by overnight centrifugation at 100,000 g. […] The concentration of exosomal proteins was quantified by Lowry assay (Biorad). […]

B16F10 tumors = experiment: B16F10 melanoma tumor model in C57/BL6 mice; format: in vivo, mouse; details: B16F10 tumor-bearing C57/BL6 mice, day 18; A0 or A8 3 mg/kg i.p. every two days; cisplatin single i.p. dose; 6 animals per group
Procedure: FIG. 5: A8 anti-tumor effect in mice is associated to MDSC and an immune anti-tumor response. (A) Mice were sc injected with B16F10 cells (5×10^4). On day 4, when tumor size was about 0.9 mm^3, animals were treated every two days until the end of the experiment with A0 or A8 (3 mg/kg dissolved in PBS, i.p injection). On day 5, half the animals were treated with cisplatin as a single dose (CDDP, i.p injection, 5 mg/kg). At day 18, the percentage of Gr1^+ CD11b^+ cells in the spleen collected from the different groups of mice was analyzed by flow cytometry (6 animals per group). As a MDCS negative control (Ctl) we used animals with no tumor cells injected. Right panels, a representative immunoblot of pSTAT3 in the MDSC (Gr1^+ CD11b^+ cells) isolated from the spleen of control animals (A0/PBS) or A8 and CDDP-treated animals (A8/CDDP). 14-3-3 is used as a loading control. (B) Analysis of tumor growth in the animals described above. Tumor size was measured every two days (6 animals per group). The white symbols represent the tumors from animals treated with cisplatin. (C) HSP70-exosomes isolated from B16F10 cells treated or not with cisplatin (CDDP, 25 μM) were determined by flow cytometry. Data represent the percentage of MFI+/−SD (n=3); *, p<0.05. (D) Association curves of HSP70-exosomes present in tumor-bearing mice sera treated or not with cisplatin (5 mg/kg). For the biolayer interferometry, biotinylated A8 was immobilized on streptavidin sensor tips. Curves represent mean values of triplicate measurements for each concentration (for each curve, the blood of 5 mice per group was pooled).
Exponentially growing B16F10 were harvested and resuspended in an RPMI medium without FBS. In vivo studies were performed in wild-type C57/BL6 mice (Charles River). B16F10 cells (5·10^4) were injected s.c. into the right flank Tumor volumes were evaluated every 2 days. Mice were treated with a control peptide aptamer A0 (3 mg/kg) or the HSP70 aptamer A8 (3 mg/kg) and half mice were treated with cisplatin (CDDP, […]). The animals were treated according to the guidelines of the Ministère de la Recherche et de la Technologie, France. All experiments were approved by the Comité d'Ethique de l'Université de Bourgogne.
MDSC cell isolation and analysis: Single-cell suspensions were prepared from spleens, and red cells were removed using ammonium chloride lysis buffer. Gr-1+ cells were isolated from spleens of different group of tumor-bearing mice or naive mice by labeling the cells with PE Cy7 Ab to Gr-1, then using magnetic PE Cy7 beads and LS MACS columns (Miltenyi Biotec). For extracellular staining of immune markers, single-cell suspensions were prepared. We incubated 1·10^6 freshly prepared cells with fluorochrome-coupled CD11b antibody (eBioscience). All events were acquired by a BD Bioscience LSR-II device and analyzed with FlowJo (Tree Star).
Animals were killed 18 days after cell injection. The site of tumor cell injection was resected and snap-frozen in liquid nitrogen. An immunohistochemical study of tumor-infiltrating inflammatory cells was performed on acetone-fixed 5 μm cryostat sections.
Next, we tested whether A8 was also able to block the immunosuppressive effect of MDSC in an in vivo cancer model. We performed subcutaneous injection at day 0 of B16F10 cells or media as a control in C57/BL6 mice. When tumor size reached about 0.9 mm^3 ([…]), mice were treated i.p. with a control peptide aptamer (A0) or A8 every two days until the end of the experiment. When indicated, half of the animals received cisplatin (CDDP, […], i.p.) as a single dose. Tumor growth was measured every two days. After 18 days, we analyzed the percentage of MDSC present in mice spleen (6 animals per group) by FACS using the specific markers Gr1^+ and CD11b^+ (FIG. 5A). […]

MSC2 cells = experiment: pSTAT3 western blot in MSC2 cells incubated with tumor-derived exosomes; format: cell-based; details: exosomes from CT26, B16F10, HCT116, SW480; 4 h and 6 h; aptamer 16 μM
Procedure: FIG. 4: A8 blocks the activation and proliferation of MSC2 cells. (A) IL-6 concentration was determined by ELISA in the supernatant of MSC2 cells incubated or not for 24 h with exosomes (from B16F10) in the presence or absence of A8. *, p<0.05, (n=3). (B) A representative image of a western blot showing the kinetics of STAT3 phosphorylation in MCS2 cells incubated or not with exosomes isolated from B16F10, CT26 or HCT116 cells together with a peptide control (TDE) or A8 (TDE/A8). 14-3-3 is used as a loading control. In the right panels, the amount of pSTAT3 was quantified by densitometric analysis. *, p<0.05, n=4.
Five millions of MSC2 cells were incubated with or without exosomes isolated from B16F10, CT26, HCT116 or SW480 cells in the presence or absence of A8 during 4 h or 6 h. Cells were isolated, lysed and analysed for pSTAT3 by western blotting.
MSC2 (2·10^6) or MDSC (2·10^6) were incubated alone or with exosomes (from B16F10, CT26, HCT116, SW480) in the absence or presence of A8 or A17 (16 μM) during 6 hours (RPMI 10% FBS, 5% of CO2 at 37° C.). Every 2 hours, […] cells were sampled and centrifugated 5 min at 300 g. Cells were lysed in lysis buffer (50 mM HEPES (pH 7.6), 150 mM NaCl, 5 mM EDTA, and 0.1% NP40 and anti-phosphatases, Roche). Then, pSTAT3 and STAT3 expression were analyzed by western blotting.

| Compound | amount of HSP70-exosomes released, dose-response (HCT116 cells) | number of exosomes at higher doses (HCT116 cells) | amount of HSP70-exosomes released, extent of increase (HCT116 cells) | other results |
| --- | --- | --- | --- | --- |
| O=c1[nH]cc(F)c(=O)[nH]1 [5-fluorouracil] | increased with drug concentration | drastically decreased | greater | – |
| N.N.[Cl][Pt][Cl] [cisplatin] | increased with drug concentration | drastically decreased | – | amount of HSP70-exosomes in the blood [1]: much stronger; amount of HSP70-exosomes released by B16F10 cancer cells (B16F10 cells): strongly increased; percentage of MDSC (Gr1+ CD11b+) in spleen (B16F10 tumors): 9+/−0.9% |
| COc1cccc2c1C(=O)c1c(O)c3c(c(O)c1C2=O)C[C@@](O)(C(=O)CO)C[C@@H]3O[C@H]1C[C@H](N)[C@H](O)[C@H](C)O1 [doxorubicin] | increased with drug concentration | drastically decreased | lesser | – |
| Nc1ccn([C@@H]2O[C@H](CO)[C@@H](O)C2(F)F)c(=O)n1 [gemcitabine] | – | – | induce an increase in the amount of HSP70-exosomes | – |
| O=C1[O][Pt]2([NH][C@@H]3CCCC[C@H]3[NH]2)[O]C1=O [oxaliplatin] | – | – | greater | – |
| CC(=O)O[C@H]1C(=O)[C@@]2(C)[C@H]([C@H](OC(=O)c3ccccc3)[C@]3(O)C[C@H](OC(=O)[C@H](O)[C@@H](NC(=O)c4ccccc4)c4ccccc4)C(C)=C1C3(C)C)[C@]1(OC(C)=O)CO[C@@H]1C[C@@H]2O [paclitaxel] | – | – | induce an increase in the amount of HSP70-exosomes | – |
| YCAYYSPRHKTTF (Synthetic Aptamer A17) [reference compound] | – | – | – | STAT3 phosphorylation (activation) in MSC2 induced by tumor-derived exosomes (MSC2 cells): did not interfere |
